{"source": "patent EP4556465A1", "about": "“NOVEL BICYCLIC PD-L1 INHIBITORS, PREPARATION METHODS THEREFOR AND MEDICINAL USES THEREOF” (priority 2022, dated 2024)", "key": {"hPD-1/hPD-L1": {"biological_target": "T1, hPD-1/hPD-L1 (Homo sapiens, UniProt Q9NZQ7)", "T1 construct": "purchased CISBIO", "T1 sequence (Q9NZQ7 19-238 limits assumed)": "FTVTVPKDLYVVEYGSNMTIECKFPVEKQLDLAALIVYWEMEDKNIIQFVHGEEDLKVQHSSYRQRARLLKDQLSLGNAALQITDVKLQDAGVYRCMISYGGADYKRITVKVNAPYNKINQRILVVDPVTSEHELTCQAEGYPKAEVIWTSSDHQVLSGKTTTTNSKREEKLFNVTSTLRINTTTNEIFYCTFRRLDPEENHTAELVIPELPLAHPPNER", "experiment": "PD-1/PD-L1 binding assay kit (CISBIO), HTRF assay of PD-1/PD-L1 protein-protein interaction", "conditions": "for inhibitory activity of PD-1/PD-L1 protein-protein interaction compared with BMS-202: HTRF, comparison with BMS-202", "experimental": "Experimental objective: the activity of the compounds of formula (I) to inhibit the PD-1/PD-L1 interaction was tested by using a PD-1/PD-L1 binding assay kit (CISBIO).\nExperimental principle: HTRF (Homogeneous Time-Resolved Fluorescence) is a technique used to detect substances to be tested in pure liquid phase systems. It primarily utilizes energy transfer of two fluorescent groups, which are divided into an energy donor europium (Eu^+) and an energy acceptor. When the donor is externally excited (e.g., a flash lamp or laser), the energy can be resonantly transferred to the acceptor if the donor is close enough to the acceptor, and the acceptor is excited at a specific wavelength. By using the HTRF technology, the assay enables simple and rapid characterization of compounds and antibody blockers in a high-throughput format. By using anti-Tag1 labeled with Eu^+ (Europium) (the HTRF energy donor) and anti-Tag2 labeled with XL665 (the HTRF energy acceptor), the interaction between PD-L1 and PD-1 can be detected. PD-L1 protein and PD-1 protein are labeled with Tag1 and Tag2, respectively, and Eu^+ and XL665 bind to PD-L1 and PD-1, respectively, through antibodies to form complexes. […] This specific signal is directly proportional to the degree of PD1/PD-L1 interaction.\nExperimental materials: kit: PD-1/PD-L1 binding assay kits purchased from CISBIO; and 96-well plate: purchased from CISBIO.\nTest instrument: Perkin Elmer, model: EnVision.\nTest compounds: the compounds in formula (I).\nExperimental procedure: PD-1/PD-L1 binding assay kits were used. […] The plates were sealed by using microplate sealers, centrifuging was performed at 1000 rpm for 1 min, and incubation was performed at room temperature for 15 min. The Anti-Tag-Eu^3+ and Anti-tag-XL665 which were diluted with Buffer were then mixed in equal volumes, then 10 µL of the mixed solution was added to each well, the sealed plates were centrifuged at 1000 rpm for 1 min, and incubation was performed at room temperature for 2 h. […] IC50 of the compounds was calculated by using Graphpad."}, "[1]": {"test_system": "breast cancer tumor cells 4T1", "conditions": "10 mg/kg, i.g., QD×21 days; for Tumor inhibition rate / tumor-inhibiting efficacy: 4T1 subcutaneous tumor", "experimental": "Subsequently, each group of animals was dosed, and the day of first administration was defined as test day 1; • Administration frequency: once a day; • General state observations: observation time and frequency: once a day; observation indicators or content: including, but not limited to, local administration of the animals, appearance signs, general behavioral activity, mental status, death, and other abnormal manifestations. The animals were euthanized at the end of the test. • Calculation of tumor volume: V=1/2×long diameter×short diameter^2 (mm^3)."}, "SD rats [2]": {"test_system": "SD rats", "experiment": "Safety test after repeated administration for 14 days", "type": "in vivo", "conditions": "oral gavage 300 mg/kg once a day for 14 days", "experimental": "• Animal species and number: SD rats; 6 rats in each group (half male and half female); Mode of administration: oral gavage; […]; • Administration frequency: administration once a day for 14 days.\n(§1) Side-cage observation of acute toxicity reactions was performed for 4 h after administration, and detailed clinical observations were performed on animals with apparent abnormal manifestations. General clinical observations included observation twice a day during the test (observation once in the morning and observation once in the afternoon). Mortality, morbidity, respiration, secretion, feces, and diet, water drinking, etc. were observed, and changes in body weight of rats during administration were recorded. Detailed clinical observations include, but are not limited to, behavioral activities, skin, hair, eyes, ears, noses, abdomens, external genitalia, anuses, limbs, feet, and breathing. The animals in each group were euthanized at the end of administration, and all animals were dissected and gross observed."}, "SD rats [3]": {"test_system": "SD rats", "experiment": "Acute toxicity test, single oral gavage", "type": "in vivo", "conditions": "500 mg/kg, 1000 mg/kg and 2000 mg/kg", "experimental": "(§2) • Animal species and number: SD rats; 6 rats in each group (half male and half female); Mode of administration: oral gavage; […]; • Administration frequency: administration once.\nas §1, with “Side-cage observation on the day of administration (D1): frequency and time of observation: side-cage” for “Side-cage”, “after administration of animals in each group,” for “after administration,”, “manifestations.” for “manifestations. General clinical observations included observation twice a day during the test (observation once in the morning and observation once in the afternoon).”, “of the observation period,” for “of administration,”"}, "[4]": {"experiment": "Acute toxicity test, single oral gavage", "type": "in vivo", "conditions": "both sexes, rat, in vivo, po, SD rats, read-out: maximum tolerated dose (MTD)", "experimental": "as §2\nas §1, with “Side-cage observation on the day of administration (D1): frequency and time of observation: side-cage” for “Side-cage”, “after administration of animals in each group,” for “after administration,”, “manifestations.” for “manifestations. General clinical observations included observation twice a day during the test (observation once in the morning and observation once in the afternoon).”, “of the observation period,” for “of administration,”"}}}
{"compound": "OCCN1CCc2nc(OCc3cccc(-c4ccccc4F)c3Cl)ccc2C1", "note": "[I-D-18, 2-(2-((2-chloro-2'-fluoro-[1,1'-biphenyl]-3-yl)methoxy)-7,8-dihydro-1,6-naphthyridin-6(5H)-yl)ethan-1-ol]", "values": [{"measurement": "IC50", "setting": "hPD-1/hPD-L1", "result": 0.0163, "unit": "µM"}, {"measurement": "inhibitory activity of PD-1/PD-L1 protein-protein interaction compared with BMS-202", "setting": "hPD-1/hPD-L1", "result": "superior to that of the compound BMS-202"}, {"measurement": "general state of tumor-bearing animals during administration (water and food intake, activity, body weight, toxicity)", "setting": "[1]", "result": "normal water intake and food intake, normal activity, normal body weight, and no toxicity manifestations"}, {"measurement": "Tumor inhibition rate", "setting": "[1]", "result": "+++ (\"+++\" indicates a tumor inhibition rate of more than 60%)"}, {"measurement": "tumor-inhibiting efficacy", "setting": "[1]", "result": "significant tumor-inhibiting efficacy"}, {"measurement": "clinical observations (water intake, food intake, activity, body weight)", "setting": "SD rats [2]", "result": "normal water intake and food intake, normal activity, and normal body weight, with no significant abnormalities"}, {"measurement": "gross observation, test sample-related changes", "setting": "SD rats [3]", "result": "No test sample-related changes were observed grossly"}, {"measurement": "mortality or moribundity", "setting": "SD rats [3]", "result": "No mortality or moribundity was observed"}]}
{"compound": "O=C(O)CN1CCc2nc(OCc3cccc(-c4ccccc4F)c3Cl)ccc2C1", "note": "[I-D-26, 2-(2-((2-chloro-2'-fluoro-[1,1'-biphenyl]-3-yl)methoxy)-7,8-dihydro-1,6-naphthyridin-6(5H)-yl)acetic acid]", "values": [{"measurement": "Tumor inhibition rate", "setting": "[1]", "result": "+++ (\"+++\" indicates a tumor inhibition rate of more than 60%)"}, {"measurement": "tumor-inhibiting efficacy", "setting": "[1]", "result": "significant tumor-inhibiting efficacy"}, {"measurement": "clinical observations (water intake, food intake, activity, body weight)", "setting": "SD rats [2]", "result": "normal water intake and food intake, normal activity, and normal body weight, with no significant abnormalities"}, {"measurement": "gross observation, test sample-related changes", "setting": "SD rats [3]", "result": "No test sample-related changes were observed grossly"}, {"measurement": "mortality or moribundity", "setting": "SD rats [3]", "result": "No mortality or moribundity was observed"}, {"measurement": "MTD", "setting": "[4]", "result": "≥ 2000", "unit": "mg/kg"}]}
{"compound": "Fc1ccccc1-c1cccc(COc2ccc3c(n2)CCNC3)c1Cl", "note": "[I-D-27, 2-((2-chloro-2'-fluoro-[1,1'-biphenyl]-3-yl)methoxy)-5,6,7,8-tetrahydro-1,6-naphthyridine]", "values": [{"measurement": "IC50", "setting": "hPD-1/hPD-L1", "result": 0.0101, "unit": "µM"}, {"measurement": "inhibitory activity of PD-1/PD-L1 protein-protein interaction compared with BMS-202", "setting": "hPD-1/hPD-L1", "result": "superior to that of the compound BMS-202"}, {"measurement": "general state of tumor-bearing animals during administration (water and food intake, activity, body weight, toxicity)", "setting": "[1]", "result": "normal water intake and food intake, normal activity, normal body weight, and no toxicity manifestations"}, {"measurement": "Tumor inhibition rate", "setting": "[1]", "result": "+++ (\"+++\" indicates a tumor inhibition rate of more than 60%)"}, {"measurement": "tumor-inhibiting efficacy", "setting": "[1]", "result": "significant tumor-inhibiting efficacy"}, {"measurement": "clinical observations (water intake, food intake, activity, body weight)", "setting": "SD rats [2]", "result": "normal water intake and food intake, normal activity, and normal body weight, with no significant abnormalities"}, {"measurement": "gross observation, test sample-related changes", "setting": "SD rats [3]", "result": "No test sample-related changes were observed grossly"}, {"measurement": "mortality or moribundity", "setting": "SD rats [3]", "result": "No mortality or moribundity was observed"}, {"measurement": "MTD", "setting": "[4]", "result": "≥ 2000", "unit": "mg/kg"}]}
